Test results taken from ChEMBL document CHEMBL1121794, “Octanol-physiological buffer distribution coefficients of lipophilic amines by reversed-phase high-performance liquid chromatography and their correlation with biological activity” (J Med Chem, 1981).

How the values were obtained:
[1] = not given; remark: listed apart in the source
[2] = not given; remark: listed apart in the source
[3] = octanol/water
Description: Partition coefficient (logD, measured by HPLC, log k')

[4] = (§1) Partition coefficient (logD7.4); conditions: octanol/water, pH 7.4
[5] = not given; remark: listed apart in the source
[6] = not given; remark: listed apart in the source
[7] = not given; remark: listed apart in the source
[8] = not given; remark: listed apart in the source
[9] = not given; remark: listed apart in the source
[10] = not given; remark: listed apart in the source
[11] = not given; remark: listed apart in the source
[12] = not given; remark: listed apart in the source
[13] = not given; remark: listed apart in the source
[14] = not given; remark: listed apart in the source
[15] = as §1; conditions: octanol/water, pH 7.4; remark: listed apart in the source
physchem [16] = conditions: octanol/water, pH 7.4
[17] = not given; remark: listed apart in the source
physchem [18] = conditions: octanol/water
physchem [19] = conditions: octanol/water; remark: listed apart in the source
Rattus norvegicus [20] = species on record: Rattus norvegicus
Rattus norvegicus [21] = species on record: Rattus norvegicus; remark: listed apart in the source
Rattus norvegicus [22] = species on record: Rattus norvegicus; remark: listed apart in the source
Rattus norvegicus [23] = species on record: Rattus norvegicus; assay: Apparent partition coefficient was measured as histamine releasing activity in rat mast cells.
[24] = biological target: Serum albumin (Bos taurus) (UniProt P02769); assay: BSA binding (log K)
[25] = octanol/water; remark: listed apart in the source
[26] = octanol/water; remark: listed apart in the source
[27] = The compound was tested for its ability to inhibit Na+/K+ ATPase in rat brain.; assay type: tissue-based
[28] = (§2) logD (measured by HPLC) (as log k'); assay type: ADME
[29] = as §2; assay type: ADME; remark: listed apart in the source
Rattus norvegicus [30] = species on record: Rattus norvegicus; assay: pKa value was measured by water/octanol using shake-flask method.
[31] = as §2; assay type: ADME; remark: listed apart in the source
[32] = not given; remark: listed apart in the source
[33] = not given; remark: listed apart in the source
[34] = as §1; assay type: physicochemical; conditions: octanol/water, pH 7.4
[35] = (§3) Partition coefficient (logD) (HPLC); assay type: physicochemical; conditions: octanol/water
[36] = as §3; assay type: physicochemical; conditions: octanol/water; remark: listed apart in the source
Rattus norvegicus [37] = species on record: Rattus norvegicus; remark: listed apart in the source

COc1ccccc1N1CCN(CCCC(=O)c2ccc(F)cc2)CC1 [FLUANISONE]
Log k': 1.64 | Log k' [1]: 0.805 | Log k' [2]: 1.063 | Log k' [3]: 1.448 | logD [4]: 2.93 | Log k' [5]: 1.175 | Log k' [6]: 1.669 | Log k' [7]: 0.996 | Log k' [8]: 1.64

CN(C)CCCN1c2ccccc2CCc2ccccc21 [IMIPRAMINE]
Log k' [3]: 1.194 | Log k' [9]: 0.934 | Log k' [10]: 1.145 | Log k' [11]: 0.806 | Log k' [12]: 1.227

O=C(NC1CCN(CCc2c[nH]c3ccccc23)CC1)c1ccccc1 [INDORAMIN]
Log k' [13]: -0.055 | Log k' [3]: 0.858 | logD [4]: 2.313 | Log k' [9]: 0.413 | Log k' [14]: 0.136 | Log k' [10]: 0.536 | Log k' [11]: 0.348 | Log k' [6]: 1.049 | Log k' [7]: 0.297 | logD [15]: 2.27 | logD (physchem [16]): 2.28 | Log k' [17]: 0.536 | Log k' [12]: 1.028

Cc1cccc(C)c1NC(=O)C1CCCCN1C (stereo not drawn) [MEPIVACAINE]
Log k': 0.008 | Log k' [1]: -0.462 | Log k' [2]: -0.492 | Log k' [3]: -0.098 | logD (physchem [18]): 1.26 | logD [4]: 1.27 | Log k' [5]: -0.429 | Log k' [6]: 0.051 | Log k' [7]: -0.564 | Log k' [8]: 0.008 | logD (physchem [19]): 1.22

CN1CCCCC1CCN1c2ccccc2Sc2ccc([S+](C)[O-])cc21 (stereo not drawn) [MESORIDAZINE]
Log k' [3]: 1.045 | logD (physchem [18]): 1.78 | logD [4]: 1.8 | Log k' [5]: 0.923 | logD (physchem [19]): 1.84

O=[N+]([O-])c1ccccc1 [NITROBENZENE]
Log k' [3]: 0.564 | logD [4]: 1.88

CNCCC=C1c2ccccc2CCc2ccccc21 [NORTRIPTYLINE]
Log k' [13]: 0.349 | Log k' [3]: 1.162 | logD (physchem [18]): 2.01 | logD [4]: 1.98 | Log k' [14]: 0.899 | pKa [15]: 9.73 | Papp (Rattus norvegicus [20]): 1.8 | logD (physchem [19]): 2.04 | Log 1/ED50 (Rattus norvegicus [21]): 1.76

OCCN1CCN(CCCN2c3ccccc3Sc3ccc(Cl)cc32)CC1 [PERPHENAZINE]
Log k': 1.749 | Log 1/ED50 (Rattus norvegicus [22]): 2.63 | Papp (Rattus norvegicus [23]): 2.95 | Log K [24]: 3.57 | logD [25]: 1.1 | pKa [15]: 7.8 | Log k' [8]: 2.287 | logD [26]: 1.473 | Activity [27]: 0.09

CN1CCN(CCCN2c3ccccc3Sc3ccc(Cl)cc32)CC1 [PROCHLORPERAZINE]
Log k' [1]: 1.907 | Log k' [2]: 1.571 | Log k' [28]: 2.292 | BSA binding [24]: 3.83 | pKa [15]: 8.1 | Log k' [8]: 2.767 | Papp (Rattus norvegicus [20]): 2.4 | Log 1/ED50 (Rattus norvegicus [21]): 2.75

CN(C)CCCN1c2ccccc2Sc2ccccc21 [PROMAZINE]
Log k' [13]: 0.505 | Log k' [3]: 1.378 | logD [4]: 2.48 | Log k' [28]: 1.47 | Log k' [9]: 1.117 | Log k' [14]: 1.252 | Log K [24]: 3.21 | Log k' [11]: 0.907 | Log k' [6]: 1.351 | Log k' [7]: 0.927 | pKa [15]: 9.42 | logD (physchem [16]): 2.54 | Log k' [17]: 1.465 | Log k' [12]: 1.345 | Papp (Rattus norvegicus [20]): 2.15 | Log 1/ED50 (Rattus norvegicus [21]): 2.05

CC(CN1c2ccccc2Sc2ccccc21)N(C)C (stereo not drawn) [PROMETHAZINE]
Log k' [3]: 1.595 | Log 1/ED50 (Rattus norvegicus [22]): 1.82 | logD [4]: 2.849 | Log k' [28]: 1.512 | Log k' [9]: 1.271 | Log k' [29]: 1.252 | pKa (Rattus norvegicus [30]): 9.4 | Log k' [6]: 1.67 | Log k' [7]: 1.172 | Log k' [31]: 0.757 | Log k' [32]: 1.669 | logD (physchem [16]): 2.79 | Log k' [17]: 1.512 | Activity [27]: -0.37 | Log k' [33]: 1.176

CCC(=O)O[C@](Cc1ccccc1)(c1ccccc1)[C@H](C)CN(C)C [PROPOXYPHENE]
Log k': 0.769 | Log k' [1]: 0.673 | Log k' [2]: 0.483 | Log k' [3]: 1.124 | logD [4]: 2.36 | Log k' [5]: 0.795 | Log k' [6]: 1.263 | Log k' [8]: 1.259 | Log k' [17]: 0.656

CCN(CC)CCOc1ccc2c(c1)C(=O)c1cc(OCCN(CC)CC)ccc1-2 [TILORONE]
Log k' [3]: 0.183 | logD (physchem [18]): 1.48 | logD [4]: 1.47 | Log k' [9]: 0.325 | Log k' [29]: 0.051 | Log k' [10]: 0.701 | logD [34]: 1.47 | Log k' [6]: 0.234 | Log k' [7]: 0.007 | Log k' [31]: -0.412 | Log k' [32]: 0.229 | logD (physchem [16]): 1.31 | Log k' [17]: 0.701 | logD (physchem [19]): 1.44 | Log k' [33]: 0.113

CN1CCN(CCCN2c3ccccc3Sc3ccc(C(F)(F)F)cc32)CC1 [TRIFLUOPERAZINE]
Log k': 2.58 | logD [35]: 1.77 | logD [36]: 1.96 | pKa [15]: 8.1 | Log k' [8]: 3.076 | Papp (Rattus norvegicus [37]): 3.9 | Activity [27]: 1.69
